Here are results for one substance from patent publication US20050042283A1, “Histamine and CCK2/gastrin receptor blockade in the treatment of acid-peptic disease and cancer” (UNIVERSITY OF MASSACHUSETTS, priority 2003, published 2005).

Common to all, as to type: in vivo
For experiment [1], the system named is H. felis-infected INS-GAS mice. The experiment in a line: Maximal gastric acid output by pyloric ligation. To be noted: 3 months treatment; for Reduction of gastric acid output: acid secretion over 4 hours. On the procedure: (§1) Mice in group III were treated orally with the histamine H2 receptor antagonist loxtidine (in drinking water) at a dose of 0.5 g/L, while group IV mice received both drugs. For the 3 months drug study of inhibitory effects on maximal acid secretion, gastric atrophy, hyperplasia and dysplasia, 8 mice were prepared for each group. For the 6 months drug study of inhibitory effects on gastric carcinogenesis, 17 mice were prepared for each group.
The pyloric ligation method was used to measure maximal acid secretion as previously described (Chen, D. et al., 2004). Briefly, mice were fasted overnight and anesthetized by isoflurane inhalation. The abdomen was incised by midline celiotomy, the pylorus ligated firmly, and the abdomen closed with surgical sutures. After 4 hours, the mice were euthanized and gastric juice collected. The acidity of gastric juice was measured with a pH meter (AR 25; Fisher Scientific, Houston, Tex.) by 0.01 N NaOH titration and results expressed as μEq.

The test system of a further experiment is IL-4. The experiment in a line: Real-time RT-PCR of cytokine expression: IL-4. Conditions: 6 months; versus untreated mice; listed as loxtidine alone. Here is the method: Real-time RT-PCR assay of growth factors and cytokine expression profiles Total RNAs were extracted from a sample of whole stomach from each animal with Trizol (Invitrogen, Calif.) and five micrograms of total RNA were used for first strand cDNA synthesis using Superscript II cDNA amplification System (Invitrogen, Calif.) following manufacturer's instructions. Real-time PCR was performed as above using RT-PCR primers for each gene as listed below. All primers were designed using Lasergene ver5.0 software (DNASTAR inc., Madison, Wis.). Results were calculated by minus delta delta threshold cycle (-ΔΔCt) method (Livak, K. J. et al., 2001). Briefly, the threshold cycle Ct1 of each sample reaction was deducted from the threshold cycle Ct2 of GAPDH reaction for normalization, and then deducted from the threshold cycle Ct3 of calibration control (45 cycles in this experiment), i.e., the final result was represented by the formula; Ct3-(Ct1-Ct2). […]
(In general: In qPCR the cycle at which signal appears reflects the starting amount.)

Experiment [2] deals with H. felis-infected INS-GAS mice. The experiment in a line: Gastric mucosa histological evaluation and scoring. To be noted: for Corpus histological score: Atrophy / Corpus histological score: Dysplasia / Corpus histological score: Hyperplasia / Corpus histological score: Inflammation: scale 0 to 4, mean ± SD.
Description: The insulin-gastrin (INS-GAS) transgenic mice (FVB/N background) have been described previously (Wang, T. C. et al., 2000; Wang T. C. et al., 1993) and were free of specific pathogens. Animals were housed in microisolator, solid-bottomed polycarbonate cages, fed a commercially prepared pelleted diet, and given water ad libitum. One hundred twenty four (124) male INS-GAS mice at 2 or 3 months of age were inoculated with Helicobacter felis (ATCC 49179) as previously described (Wang, T. C. et al., 2000). Infection status was confirmed at 14 weeks and 26 weeks post inoculation by enzyme-linked immunosorbent assay (ELISA) to measure immunoglobulin IgG antibody to H. felis, and by quantitative real-time PCR assays of gastric corpus tissue at necropsy as described below. All experiments were approved by the Institutional Animal Care and Use Committee of University of Massachusetts Medical School.
as §1
The proton pump inhibitor omeprazole was purchased from Sigma (St. Louis Mo.) and dissolved in dimethylsulfoxide (DMSO)/PEG300, a 1:1 mixture at the concentration of 40 mg/ml, and injected intraperitoneally daily at the dose of […] (=350 micromole/kg) for 3 months. Twenty four (24) mice were divided into four groups. Mice in group A were controls treated with vehicle only, whereas group B mice were treated with omeprazole alone. Group C and D mice were treated with combination of omeprazole and YF476 or loxtidine, respectively.
At necropsy, linear strips extending from the squamocolumnar junction through the proximal duodenum were fixed in 10% neutral-buffered formalin, paraffin-embedded, cut at 5 microns, and stained with hematoxylin and eosin. Indices of injury in the gastric cardia/corpus and antrum were scored on an ordinal scale from 0 to 4 in increments of 0.5 by a single veterinary pathologist (A.B.R.) blinded to treatment groups. Paraffin-embedded sections were also stained with the Warthin-Starry silver staining method for detection of H.felis as previously described (Fox, J. G. et al., 2003).

Entries after “also recorded” stand apart in the source; their conditions may differ.

Turning to “1-methyl-5-((3-(3-(1-piperidinylmethyl)phenoxy)propyl)amino)-1H-1,2,4-triazole-3-ethanol [Loxtidine]”, in experiment [1], the “Maximal gastric acid output (MAO), effect in words” value is given as “significantly inhibited” and the “Reduction of gastric acid output” value is 80%. Moreover, the “Reduction of gastric acid output” value in experiment [1] (listed as loxtidine) was determined as 83%. Also, in the experiment with IL-4, the IL-4 expression level result is “large and significant increase; also recorded: significantly higher level”. Moreover, the “Histological finding: gastric atrophy, hyperplasia, dysplasia” value (shortened to “Histological finding: gastric atrophy”) in experiment [2] (3 months treatment, hematoxylin and eosin) was “partially blocked”. Moreover, in experiment [2] (3 months treatment, hematoxylin and eosin, listed as loxtidine), the “Histological finding: gastric atrophy” value is “partial inhibition of gastric atrophy and foveolar hyperplasia”. In experiment [2] (3 months treatment, hematoxylin and eosin, listed as loxtidine alone), the “Histological finding: gastric atrophy” value is reported as “slight inhibition of Helicobacter-mediated gastric atrophy”. Besides, in experiment [2] (3 months treatment, n = 4), the “Corpus histological score: Atrophy” value amounted to 1.83 ± 0.29, the “Corpus histological score: Dysplasia” value was determined as 1.00 ± 0.50, the “Corpus histological score: Hyperplasia” value was found to be 1.33 ± 0.58 and the “Corpus histological score: Inflammation” value worked out at 1.83 ± 0.29. Besides, the “Histological finding: gastric neoplasia / carcinogenesis” value in experiment [2] (6 months treatment, hematoxylin and eosin) is on record as “partial inhibition of progression to neoplasia”. Also, in experiment [2] (6 months treatment, n = 5), the “Corpus histological score: Atrophy” value was found to be 2.67 ± 0.61, the “Corpus histological score: Dysplasia” value was found to be 2.17 ± 1.29a, the “Corpus histological score: Hyperplasia” value is given as 2.42 ± 1.07a and the “Corpus histological score: Inflammation” value was 2.33 ± 1.17.
